From PubChem BioAssay (NCI)
“And” between values parts separate entries of the source, which are not always exact repeats. Equal entries are not always repeated.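 Test compounds were applied to cells in 96-well plates for 48 hours at 5 doses. Here, GI50 denotes the concentration required for 50% inhibition of growth. TGI: total growth inhibition.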

What was measured:
Assay in all cases: DTP human tumour cell line panel, 48 h
[1] = tested on: EKVX NSCLC
[2] = tested on: NCI-H522 lung
[3] = tested on: LOX IMVI melanoma
[4] = tested on: SF-268 CNS
[5] = tested on: UACC-257 melanoma
[6] = tested on: K-562 leukemia
[7] = tested on: HCC-2998 colon
[8] = tested on: RPMI-8226 leukemia
[9] = tested on: SK-MEL-2 melanoma
[10] = tested on: SNB-75 CNS

Structure (SMILES)	TGI [1]	TGI [2]	TGI [3]	TGI [4]	TGI [5]	TGI [6]	TGI [7]	TGI [8]	TGI [9]	TGI [10]	GI50 [1]	GI50 [2]	GI50 [3]	GI50 [4]	GI50 [5]	GI50 [6]	GI50 [7]	GI50 [9]	GI50 [10]	GI50 [8]
N#C/C(=C/c1cccnc1)C(=O)c1ccccc1	> 100 µM	> 100 µM	> 100 µM	> 100 µM	> 100 µM	> 100 µM	> 100 µM	> 100 µM	> 100 µM	> 100 µM	–	–	–	–	–	–	–	–	–	–
O=C1c2ccccc2S(=O)(=O)N1CSC(=S)N1CCCC1	> 100 µM	> 100 µM	> 100 µM	> 100 µM	> 100 µM	> 100 µM	> 100 µM	> 36 µM	> 100 µM	> 100 µM	> 100 µM	12.1 µM	> 100 µM	> 100 µM	> 100 µM	4.02 µM	> 53.4 µM	> 100 µM	> 48 µM	–
Nc1ccc(C#Cc2cncnc2Nc2ccc(OCc3cccc(F)c3)c(Cl)c2)cc1	> 25 µM	> 23.2 µM	> 25 µM	> 25 µM	> 25 µM	> 25 µM	> 25 µM	> 25 µM	> 25 µM	24.5 µM	3.07 µM	4.94 µM	12.8 µM	16.5 µM	> 13.2 µM	11.4 µM	11.1 µM	> 16.4 µM	> 12.1 µM	15.3 µM
O=C1C(Cl)=C(Nc2ccc3cn[nH]c3c2)C(=O)c2ccccc21	4.6 µM	2.94 µM	1.92 µM	3 µM	3.06 µM	2.06 µM	3.99 µM	2.43 µM	3.54 µM	3.03 µM	1.5 µM	1.55 µM	0.562 µM	1.63 µM	1.66 µM	0.526 µM	2.02 µM	1.71 µM	1.67 µM	0.31 µM
O=C(CC/C(C/C(=N/O)c1ccc(F)cc1)=N/O)N(Cc1ccccc1)Cc1ccccc1	> 100 µM	> 100 µM	> 100 µM	> 100 µM	> 100 µM	> 100 µM	> 100 µM	> 100 µM	> 100 µM	> 100 µM	–	–	–	–	–	–	–	–	–	–
O=C1C=CC(=O)C1(Br)Br	29.7 µM	14.4 µM	27.2 µM	37.9 µM	30.7 µM	> 95.1 µM	31.2 µM	20.1 µM	31.4 µM	24.5 µM	–	–	–	–	–	–	–	–	–	–
CCc1cccc(CC)c1NC(=S)NC(=O)c1ccc(Br)cc1	> 100 µM	51.3 µM	> 56.2 µM	> 100 µM	> 100 µM	> 100 µM	> 100 µM	> 100 µM	48.9 µM	> 96.6 µM	–	–	–	–	–	–	–	–	–	–
C=C1C(=O)O[C@H]2[C@H]1CC/C(COC(=O)C(=O)c1c[nH]c3ccc(OC)cc13)=C\CC[C@@]1(C)O[C@@H]21	24.7 µM	9.31 µM	2.35 µM	13 µM	12.1 µM	> 100 µM	9.82 µM	10.5 µM	> 20.4 µM	10.4 µM	9.85 µM	5.34 µM	1.49 µM	6.75 µM	6.53 µM	> 100 µM	6.29 µM	–	6.13 µM	2.21 µM
COc1c2ccccc2c(O)c2c(=O)c(C(=O)O)cn(C)c12	> 100 µM	> 100 µM	> 100 µM	> 100 µM	> 100 µM	> 100 µM	> 100 µM	> 100 µM	> 100 µM	> 100 µM	85.2 µM	> 100 µM	> 100 µM	> 100 µM	> 100 µM	> 100 µM	> 100 µM	> 100 µM	> 100 µM	> 100 µM
C#CCN1CCN(C(=S)N/N=C(\C)c2ccccn2)CC1	3.52 µM and 6.91 µM	6.52 µM and 2.27 µM	6.8 µM	16.5 µM	2.72 µM and 2.53 µM	14 µM	4.38 µM	–	5.41 µM and 4.64 µM	6.35 µM and 12.7 µM	0.471 µM	< 0.0292 µM	1.6 µM	–	0.00558 µM	0.00334 µM	–	2.4 µM	–	0.00287 µM
COc1cc(NN=C(c2ccc(O)cc2)c2ccc(O)cc2)c([N+](=O)[O-])cc1[N+](=O)[O-]	28.3 µM	29.9 µM	18.6 µM	25.5 µM	29.3 µM	> 100 µM	29.8 µM	> 100 µM	30.5 µM	29.6 µM	14.4 µM	8.86 µM	3.76 µM	6.64 µM	15.5 µM	3.92 µM	14.8 µM	14.2 µM	14.7 µM	1.5 µM
CN(C)CCNC(=O)c1cccc2cc3ccccc3nc12	7.81 µM	3.12 µM	3.48 µM	8.18 µM	3.55 µM	18.1 µM	5.9 µM	> 25.2 µM	4.34 µM	6.22 µM	2.25 µM	1.32 µM	0.802 µM	1.65 µM	1.6 µM	1.88 µM	1.63 µM	2.27 µM	2.01 µM	1.89 µM
COC(=O)c1ccccc1NC(=O)C(=O)CC(=O)c1ccccc1NC1=CC(=O)C(=O)c2ccccc21	> 100 µM	21.4 µM	4.76 µM	30.3 µM	14.8 µM	> 100 µM	66.7 µM	35.1 µM	30.5 µM	40.3 µM	–	–	–	–	–	–	–	–	–	–
Nc1ccn([C@H]2C[C@@H](O)[C@@H](CO)S2)c(=O)n1	> 100 µM	> 100 µM	> 100 µM	> 100 µM	> 100 µM	> 100 µM	> 100 µM	> 100 µM	> 100 µM	> 100 µM	> 100 µM	–	> 100 µM	> 100 µM	> 100 µM	> 100 µM	> 100 µM	> 100 µM	> 44 µM	> 100 µM
O=C1CC2CCCCC2=C1O (centres undefined)	> 100 µM	> 100 µM	> 100 µM	> 100 µM	> 100 µM	> 100 µM	> 100 µM	> 100 µM	> 100 µM	> 100 µM	–	–	–	–	–	–	–	–	–	–
CS(=O)(=O)N1CCN(Cc2cc3nc(-c4cccc5[nH]ncc45)nc(N4CCOCC4)c3s2)CC1 (tested in a mixture with another compound)	–	13 µM	–	–	0.42 µM	–	> 100 µM	> 100 µM	6.67 µM	0.164 µM	0.087 µM	0.375 µM	0.169 µM	0.152 µM	0.0608 µM	0.349 µM	1.31 µM	0.753 µM	0.021 µM	3.48 µM
CCCCCCCCCCCCCC/C(C(=O)OC)=C(/O)C(=O)OCC	> 100 µM	> 100 µM	39.3 µM	64.3 µM	> 100 µM	> 100 µM	37.3 µM	> 100 µM	32 µM	> 100 µM	–	–	–	–	–	–	–	–	–	–
CC(CN)[C@@H]1CC[C@]2(CO)CC[C@]3(C)[C@H](CC[C@@H]4[C@@]5(C)CCC(NCCO)C(C)(C)[C@@H]5CC[C@]43C)[C@@H]12 (some centres undefined)	5.01 µM	3.27 µM	3.12 µM	3.94 µM	3.15 µM	3.35 µM	3.57 µM	4.5 µM	3.42 µM	3.12 µM	2.1 µM	1.67 µM	1.64 µM	1.75 µM	1.73 µM	1.54 µM	1.89 µM	1.8 µM	1.3 µM	1.89 µM
Cc1ccc(N=C2CSc3nnc(-c4csc5c4CCCC5)n3N2)cc1	> 50 µM	0.432 µM	> 50 µM	> 50 µM	> 50 µM	> 50 µM	> 50 µM	> 50 µM	> 50 µM	17.2 µM	0.209 µM	0.114 µM	0.302 µM	0.561 µM	> 50 µM	0.156 µM	1.31 µM	0.221 µM	0.13 µM	0.203 µM
CC(=O)O[C@H]1[C@@H]2[C@@H]3[C@@H](C[C@H]1C)[C@@H](C)CO[C@@]1(C)CC/C=C(/C)C[C@@H]2O[C@@H]31	> 100 µM	> 100 µM	> 100 µM	> 100 µM	> 100 µM	> 100 µM	> 100 µM	> 100 µM	> 100 µM	> 100 µM	–	–	–	–	–	–	–	–	–	–
CC1=C(C(=O)Nc2ccccc2C)C(c2ccc([N+](=O)[O-])cc2)C(C(=O)Nc2ccccc2C)=C(C)N1	> 100 µM	> 100 µM	> 100 µM	> 100 µM	> 100 µM	> 100 µM	> 100 µM	> 100 µM	> 100 µM	86.5 µM	–	–	–	–	–	–	–	–	–	–
Nc1nc2c(c3ncccc13)C(c1cccc(Cl)c1)Cc1ncccc1-2 (centres undefined)	> 100 µM	2.82 µM	19.5 µM	32.1 µM	44.5 µM	> 100 µM	15.1 µM	41.1 µM	15.4 µM	8.17 µM	4.9 µM	0.417 µM	5.12 µM	3.79 µM	15 µM	0.53 µM	2.77 µM	1.84 µM	1.12 µM	4.19 µM
C(CCc1nnc2c(n1)CCCC2)Cc1nnc2c(n1)CCCC2	> 100 µM	> 100 µM	> 100 µM	> 100 µM	–	> 100 µM	> 100 µM	> 100 µM	> 100 µM	> 100 µM	–	–	–	–	–	–	–	–	–	–
CC[N+](CC)=c1ccc2nc3c(cc(NCc4ccccc4)c4ccccc43)oc-2c1	0.944 µM	0.567 µM	0.299 µM	1.51 µM	0.387 µM	0.724 µM	1.26 µM	0.539 µM	2.25 µM	0.808 µM	0.159 µM	0.149 µM	0.127 µM	0.307 µM	0.159 µM	0.121 µM	0.338 µM	0.737 µM	0.385 µM	0.0949 µM
CCOC(=O)/C=C1\SC(=Nc2ccc(C#N)cc2)N(CCN2C(=O)/C(=C/C(=O)OCC)SC2=Nc2ccc(C#N)cc2)C1=O	28.7 µM	24.3 µM	1.28 µM	16.1 µM	36.4 µM	> 100 µM	6.61 µM	2.99 µM	28.8 µM	36.1 µM	5.2 µM	6.56 µM	0.585 µM	1.94 µM	14 µM	0.786 µM	2.4 µM	12.1 µM	5.02 µM	0.415 µM
CN1CCN(c2ccc(-c3cnc4c(-c5csc6ccccc56)cnn4c3)cc2)CC1	> 15 µM	> 15 µM	5.4 µM	> 15 µM	> 15 µM	> 15 µM	> 15 µM	9.75 µM	> 15 µM	> 15 µM	9.79 µM	8.15 µM	2.65 µM	> 15 µM	13.8 µM	3.03 µM	6 µM	> 15 µM	> 15 µM	2.99 µM
O=C(O)CCC1COc2ccccc2O1 (centres undefined)	> 10 µM	> 10 µM	> 10 µM	> 10 µM	> 10 µM	> 10 µM	> 10 µM	> 10 µM	> 10 µM	> 10 µM	–	–	–	–	–	–	–	–	–	–
O=C(Nc1cnn2ccc(N3CCC[C@@H]3c3cc(F)ccc3F)nc12)N1CC[C@H](O)C1	> 100 µM	> 100 µM	> 100 µM	> 100 µM	–	> 100 µM	> 100 µM	> 100 µM	> 100 µM	> 100 µM	> 100 µM	> 100 µM	> 100 µM	> 100 µM	–	> 100 µM	> 100 µM	> 100 µM	> 100 µM	> 100 µM
COc1ccc(C2NCCc3c2[nH]c2ccccc32)cc1CN1CCN(c2ccc(F)cc2)CC1 (centres undefined)	–	3.73 µM	3.09 µM	7.82 µM	3.26 µM	4.09 µM	3.33 µM	5.65 µM	3.93 µM	2.52 µM	–	1.93 µM	1.64 µM	2.57 µM	1.76 µM	1.73 µM	1.61 µM	2.14 µM	1.25 µM	2.47 µM
